No end group written: not given here.

One data set has as its system horse erythrocytes. Conditions: TRIS buffer pH 7.2, 1 h, 37°C, absorbance 540 nm, relative to melittin 100 μM, ± confidence interval (α = 0.05). Put shortly:
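Horse erythrocytes washed in 10 mM Tris, 150 mM NaCl, pH 7.2 were mixed 1:1 with compound solutions at 750, 500, 300 and 100 μM and shaken 1 h at 37°C. Hemoglobin release read at 540 nm in supernatant; % hemolysis relative to buffer and melittin control.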

Another data set deals with tobacco leaves. The data set is described as follows: Effect of peptide infiltration on tobacco leaves (phytotoxicity). The format is in vivo. Conditions: in vivo. In a few lines:
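Peptide solutions at 50, 150 and 250 μM were infiltrated into the mesophyll of fully expanded tobacco leaves, with at least three leaves per peptide and dose on different plants. Water and equimolar melittin served as controls. Lesion diameter was measured 48 h after infiltration.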

Data set [1] in a line: HPLC retention time as indicator of relative hydrophobicity. The format is physicochemical. Conditions: chromatographic, Kromasil 100 C18 (4.6 mm × 40 mm, 3 μm), linear gradient 2 to 100% B over 12 min, 1 mL/min; A 0.1% aqueous TFA, B 0.1% TFA in CH3CN; used as indicator of relative hydrophobicity. Put shortly: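 Reversed-phase HPLC on Kromasil 100 C18 (4.6 × 40 mm, 3 μm), 0.1% TFA in water/acetonitrile, linear 2–100% B at 1 mL/min over 7 min (method A, UV 220 nm) or 12 min (method B). Retention time serves as relative hydrophobicity.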

For data set [2], the system named is Xanthomonas axonopodis pv. vesicatoria 2133-2. The following applies: TSB, 25°C, 48 h, OD 600 nm (Bioscreen C), three replicates, experiment repeated twice; MIC given as range. In a few lines:
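Bacteria grown 24 h (48 h for Xanthomonas axonopodis, X. fragariae) at 25°C, suspended at 10^8 CFU mL^−1, mixed with peptide dilutions in TSB.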

In data set [3] the test system is plant-pathogenic bacteria (E. amylovora, X. arboricola pv. pruni, X. fragariae, X. axonopodis pv. vesicatoria, P. syringae pv. actinidiae, P. syringae pv. …). Conditions: 24 h.
Data set [4] has as its system Xanthomonas arboricola pv. pruni CFBP5563. The data set is described as follows: In vitro growth inhibition (MIC). The format is cell-based. The following applies: TSB, 25°C, 48 h, OD 600 nm (Bioscreen C), three replicates, experiment repeated twice; MIC given as range. In a few lines:
(§1)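 Bacterial suspensions (10^8 CFU mL^−1, from 24 h plates at 25°C) mixed with peptide dilutions in TSB, triplicate wells. OD600 read hourly over 48 h at 25°C with shaking. MIC = lowest concentration with no growth at end of run.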

The test system of data set [5] is Xanthomonas fragariae Xf349-9A. The data set is described as follows: In vitro growth inhibition (MIC). The format is cell-based. Conditions: TSB, 25°C, 48 h, OD 600 nm (Bioscreen C), three replicates, experiment repeated twice; MIC given as range. Put shortly: as §1
The subject of data set [6] is Erwinia amylovora PMV6076. The data set can be described thus: In vitro growth inhibition (MIC). The format is cell-based. The following applies: TSB, 25°C, 48 h, OD 600 nm (Bioscreen C), three replicates, experiment repeated twice; MIC = lowest concentration with no growth, given as range. Put shortly:
as §1

Data set [7] has as its system Pseudomonas syringae pv. syringae EPS94. The data set is described as follows: In vitro growth inhibition (MIC). The format is cell-based. Conditions: TSB, 25°C, 48 h, OD 600 nm (Bioscreen C), three replicates, experiment repeated twice; MIC given as range. In a few lines: as §1
Data set [8] has as its system Pseudomonas syringae pv. actinidiae Psa3700.1.1. The data set can be described thus: In vitro growth inhibition (MIC). The format is cell-based. The following applies: TSB, 25°C, 48 h, OD 600 nm (Bioscreen C), three replicates, experiment repeated twice; MIC given as range. Put shortly: as §1

For the substance “VWNQPVRGFKVYEKKLFKKILKYL-NH2 [Pep13-BP100]”, in the data set with horse erythrocytes, the “Percent hemolysis at 50 μM” value came to 9 ± 1.0%, the “Percent hemolysis at 150 μM” value was found to be 25 ± 2.4%, the “Percent hemolysis at 250 μM” value amounted to 45 ± 9.0% and the “Percent hemolysis at 375 μM” value turned out to be 49 ± 9.2%. Also, in the data set on tobacco leaves, the “Size of the lesions in infiltrated tobacco leaves at 50 μM” value was found to be 0.26 ± 0.08 cm, the “Size of the lesions in infiltrated tobacco leaves at 150 μM” value was found to be 0.56 ± 0.13 cm and the “Size of the lesions in infiltrated tobacco leaves at 250 μM” value was 0.70 ± 0.15 cm. For the same substance, the “tR (min), HPLC retention time (method B)” value in [1] was determined as 6.14 min. The “MIC, Xav” value in data set [2] was in the range of 0.8 to 1.6 µM. The “MIC against all the bacteria tested (span over the six pathogens)” value in data set [3] was in the range of 0.8 to 12.5 µM. The “MIC, Xap” value in [4] was 0.8 to 1.6 µM. Besides, the “MIC, Xf” value in data set [5] was in the range of 6.2 to 12.5 µM. Further, the “MIC, Ea” value in [6] was in the range of 6.2 to 12.5 µM. The “MIC, Pss” value in data set [7] fell in the range of 6.2 to 12.5 µM. Moreover, the “MIC, Psa” value in data set [8] was 3.1 to 6.2 µM.

The values are drawn from article PMC9238401, “Peptide Conjugates Derived from flg15, Pep13, and PIP1 That Are Active against Plant-Pathogenic Bacteria and Trigger Plant Defense Responses” (Applied and Environmental Microbiology, 2022).
